For the experiment, the system named is IFV A/PR/8/34. Kind of experiment: cytopathic effect (CPE) antiviral test in MDCK cells, IFV A/PR/8/34. To be noted: unidentified influenza virus, PR/8, MDCK, 120 h, read-out: EC50(IFV A/PR/8/34). It is filed as cell-based, influenza virus. On the technique in general: Protection from cytopathic effect is a common read-out in antiviral testing.

pEC50: −log10 of the molar value.

With `O=C(Nc1ccc2nc(-c3ccnc(C(=O)N4CCN(C(c5ccccc5)c5nnn(C(F)F)n5)CC4)c3)oc2c1)[C@@H]1C[C@@H]1F` (mixture of isomers) [Compound 93, (1S,2S)—N-(2-(2-(4-((R/S)-(2-(difluoromethyl)-2H-tetrazol-5-yl)(phenyl)methyl)piperazine-1-carbonyl)pyridin-4-yl)benzo[d]oxazol-6-yl)-2-fluorocyclopropane-1-carboxamide], the pEC50 is 7.80.

Turning to `O=C(Nc1ccc2oc(-c3ccnc(C(=O)N4CCN(C(c5ccsc5)c5nnn(C(F)F)n5)CC4)c3)nc2c1)[C@@H]1C[C@@H]1F` (mixture of isomers) [Compound 122, (1S,2S)—N-(2-(2-(4-((R/S)-(2-(difluoromethyl)-2H-tetrazol-5-yl)(thiophen-3-yl)methyl)piperazine-1-carbonyl)pyridin-4-yl)benzo[d]oxazol-5-yl)-2-fluorocyclopropane-1-carboxamide], the pEC50 was 7.72.

On to `O=C(Nc1ccc2oc(-c3ccnc(C(=O)N4CCC(C(c5ccccc5)n5nnc(C(F)F)n5)CC4)c3)nc2c1)[C@@H]1C[C@@H]1F` (mixture of isomers) [Compound 138, (1S,2S)—N-(2-(2-(4-((R/S)-(5-(difluoromethyl)-2H-tetrazol-2-yl)(phenyl)methyl)piperidine-1-carbonyl)pyridin-4-yl)benzo[d]oxazol-5-yl)-2-fluorocyclopropanecarboxamide], for which the pEC50 was 8.40.

Regarding `O=C(Nc1ccc2oc(-c3ccnc(C(=O)N4CCC(C(c5ccccc5)c5nnn(C(F)F)n5)CC4)c3)nc2c1)[C@@H]1C[C@@H]1F` (mixture of isomers) [Compound 168, (1S,2S)—N-(2-(2-(4-((R/S)-(2-(difluoromethyl)-2H-tetrazol-5-yl)(phenyl)methyl)piperidine-1-carbonyl)pyridin-4-yl)benzo[d]oxazol-5-yl)-2-fluorocyclopropane-1-carboxamide], the pEC50 is 8.70.

For the compound `Cc1nnn(C(c2ccccc2)C2CCN(C(=O)c3cc(-c4nc5cc(NC(=O)[C@H]6C[C@@H]6F)ccc5o4)ccn3)CC2)n1` (mixture of isomers) [Compound 184, (1R,2S)-2-fluoro-N-(2-(2-(4-((R/S)-(5-methyl-2H-tetrazol-2-yl)(phenyl)methyl)piperidine-1-carbonyl)pyridin-4-yl)benzo[d]oxazol-5-yl)cyclopropanecarboxamide], the pEC50 is 7.85.

Consider `Cc1nnn(C(c2ccccc2)C2CCN(C(=O)c3cc(-c4nc5cc(NC(=O)[C@H]6C[C@H]6F)ccc5o4)ccn3)CC2)n1` (mixture of isomers) [Compound 185, (1R,2R)-2-fluoro-N-(2-(2-(4-((R/S)-(5-methyl-2H-tetrazol-2-yl)(phenyl)methyl)piperidine-1-carbonyl)pyridin-4-yl)benzo[d]oxazol-5-yl)cyclopropanecarboxamide], for which the pEC50 was 7.62.

Take `Cc1nnn(C(c2ccccc2)C2CCN(C(=O)c3cc(-c4nc5cc(NC(=O)[C@@H]6C[C@H]6F)ccc5o4)ccn3)CC2)n1` (mixture of isomers) [Compound 190, (1S,2R)-2-fluoro-N-(2-(2-(4-((R/S)-(5-methyl-2H-tetrazol-2-yl)(phenyl)methyl)piperidine-1-carbonyl)pyridin-4-yl)benzo[d]oxazol-5-yl)cyclopropane-1-carboxamide]: the pEC50 was 7.96.

As to `O=C(Nc1ccc2oc(-c3ccnc(C(=O)N4CCC(C(c5ccccc5)n5nnc(CO)n5)CC4)c3)nc2c1)[C@@H]1C[C@@H]1F` (mixture of isomers) [Compound 197, (1S,2S)-2-fluoro-N-(2-(2-(4-((R/S)-(5-(hydroxymethyl)-2H-tetrazol-2-yl)(phenyl)methyl)piperidine-1-carbonyl)pyridin-4-yl)benzo[d]oxazol-5-yl)cyclopropane-1-carboxamide], the pEC50 was 9.05.
